Experimental data reported in publication PMC7997382 (2020).

Experiments:
Assay in all cases: ESI-MS, negative mode
[1] = tested on: 20 mer double strand DNA (dsDNA) (DNA, duplex) GTCCATGCCCCAGGCCCACC/GGTGGGCCTGGGGCATGGAC; settings: ammonium acetate 15 mM, 10-fold molar excess of compound, room temperature, 24 h, diluted 1:10, pH 6.8
[2] = tested on: ssDNA2 (DNA, single strand) GGTGGGCCTGGGGCATGGAC; settings: ammonium acetate 15 mM, 10-fold molar excess over dsDNA, 24 h, ssDNA in equilibrium with dsDNA
[3] = tested on: ssDNA1 (DNA, single strand) GTCCATGCCCCAGGCCCACC; settings: ammonium acetate 15 mM, 10-fold molar excess over dsDNA, 24 h, ssDNA in equilibrium with dsDNA

SMILES	binding [1]	binding ([2]; no adduct peak)	binding ([3]; no adduct peak)	binding ([2]; partial binding)	binding ([3]; partial binding)	binding ([1]; covalent, each cisplatin lost both chloride ligands)
C=C.CC(=O)OC[C@H]1O[C@@H](N2[C]N(C)C=C2)[C@H](OC(C)=O)[C@@H](OC(C)=O)[C@@H]1OC(C)=O.Cc1ccc2ccc3ccc(C)nc3c2n1.[CH3-].[Pt+2]	yes	no	no			
CC(=O)OC[C@H]1O[C@@H](N2[C]N(C)C=C2)[C@H](OC(C)=O)[C@@H](OC(C)=O)[C@@H]1OC(C)=O.[CH3-].[CH3-].[CH3-].[Pt+4].c1cnc2c(c1)ccc1cccnc12	yes			weak	weak	
N.N.[Cl-].[Cl-].[Pt+2]						yes
